What was measured:
BRD7 = molecular target: T1, BRD7 (Homo sapiens, UniProt Q9NPI1); assay: BROMOscan bromodomain competitive binding assay (DiscoveRx), BRD7; details: BROMOscan platform, n = 2
T1 construct: purchased DiscoveRx (BROMOscan platform); host or cells: E. coli host derived from BL21 (T7 phage)
T1 sequence (Q9NPI1 131-235 limits assumed): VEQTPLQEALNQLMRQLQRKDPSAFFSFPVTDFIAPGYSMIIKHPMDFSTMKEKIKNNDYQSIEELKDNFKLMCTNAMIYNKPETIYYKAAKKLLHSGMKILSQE
Protocol: (§1) Compounds were tested using the commercially available BROMOscan™ Platform (DiscoveRx): http://www.discoverx.com/technologies-platforms/competitive-binding-technology/bromoscan-technology-platform/bromoscan-assay-process.
Bromodomain assays. T7 phage strains displaying bromodomains were grown in parallel in 24-well blocks in an E. coli host derived from the BL21 strain. E. coli were grown to log-phase and infected with T7 phage from a frozen stock (multiplicity of infection=0.4) and incubated with shaking at 32° C. until lysis (90-150 minutes). The lysates were centrifuged (5,000×g) and filtered (0.2 μm) to remove cell debris. […] The liganded beads were blocked with excess biotin and washed with blocking buffer (SeaBlock (Pierce), 1% BSA, 0.05% Tween 20, 1 mM DTT) to remove unbound ligand and to reduce non-specific phage binding. […] The bromodomain concentration in the eluates was measured by qPCR.
An 11-point 3-fold serial dilution of each test compound was prepared in 100% DMSO at 1000× final test concentration. […] Most Kds were determined using a compound top concentration=10,000 nM.
(§2) Binding constants (Kds) were calculated with a standard dose-response curve using the Hill equation: […]

BRPF3 = molecular target: T2, BRPF3 (Homo sapiens, UniProt Q9ULD4); assay: BROMOscan bromodomain competitive binding assay (DiscoveRx), BRPF3; details: BROMOscan platform, n = 2
T2 construct: purchased DiscoveRx (BROMOscan platform); host or cells: E. coli host derived from BL21 (T7 phage)
T2 sequence (Q9ULD4 589-693 limits assumed): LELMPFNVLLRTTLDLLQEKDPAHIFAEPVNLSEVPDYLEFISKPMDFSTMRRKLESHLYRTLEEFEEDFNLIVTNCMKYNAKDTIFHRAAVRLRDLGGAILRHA
Protocol: as §1
(§3) Bromodomain assays. T7 phage strains displaying bromodomains were grown in parallel in 24-well blocks in an E. coli host derived from the BL21 strain. E. coli were grown to log-phase and infected with T7 phage from a frozen stock (multiplicity of infection=0.4) and incubated with shaking at 32° C. until lysis (90-150 minutes). The lysates were centrifuged (5,000×g) and filtered (0.2 μm) to remove cell debris. […] The liganded beads were blocked with excess biotin and washed with blocking buffer (SeaBlock (Pierce), 1% BSA, 0.05% Tween 20, 1 mM DTT) to remove unbound ligand and to reduce non-specific phage binding. […] Test compounds were prepared as 1000× stocks in 100% DMSO and subsequently diluted 1:10 in monoethylene glycol (MEG) to create stocks at 100× the screening concentration (resulting stock solution is 10% DMSO/90% MEG). The compounds were then diluted directly into the assays such that the final concentration of DMSO and MEG were 0.1% and 0.9%, respectively. All reactions were performed in polystyrene 96-well plates in a final volume of 0.135 ml. […] The bromodomain concentration in the eluates was measured by qPCR.
(§4) An 11-point 3-fold serial dilution of each test compound was prepared in 100% DMSO at 1000× final test concentration. This serial is then diluted to 100× in ethylene glycol and subsequently diluted to 1× in the assay (final DMSO concentration=0.1%, Ethylene glycol concentration=0.9%). Most Kds were determined using a compound top concentration=10,000 nM.
as §2
(§5) The Hill Slope was set to −1. Curves were fitted using a non-linear least square fit with the Levenberg-Marquardt algorithm.
(§6) BROMOscan™ uses the same assay technology as KINOMEscan™. For a more detailed description of this assay technology, see Fabian et al.12

BRPF1B = molecular target: T3, BRPF1B (Homo sapiens, UniProt P55201); assay: BROMOscan bromodomain competitive binding assay (DiscoveRx), BRPF1B; details: BROMOscan platform, n = 2 unless cell says n = 4
T3 construct: purchased DiscoveRx (BROMOscan platform); host or cells: E. coli host derived from BL21 (T7 phage)
T3 sequence (P55201 628-732 limits assumed): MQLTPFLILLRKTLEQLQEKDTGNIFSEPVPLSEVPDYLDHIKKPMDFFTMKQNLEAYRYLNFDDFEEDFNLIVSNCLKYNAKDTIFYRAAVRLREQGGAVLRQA
Protocol: as §1, §3, §4, §2, §5, §6

BRD9 = molecular target: T4, BRD9 (Homo sapiens, UniProt Q9H8M2); assay: BROMOscan bromodomain competitive binding assay (DiscoveRx), BRD9; details: BROMOscan platform, n = 2
T4 construct: purchased DiscoveRx (BROMOscan platform); host or cells: E. coli host derived from BL21 (T7 phage)
T4 sequence (Q9H8M2 136-240 limits assumed): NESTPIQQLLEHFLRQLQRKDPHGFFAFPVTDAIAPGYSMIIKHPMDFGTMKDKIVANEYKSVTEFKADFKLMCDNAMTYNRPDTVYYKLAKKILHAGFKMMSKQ
Protocol: as §1, §3, §4, §2, §5, §6

BRD1 = molecular target: T5, BRD1 (Homo sapiens, UniProt O95696); assay: BROMOscan bromodomain competitive binding assay (DiscoveRx), BRD1; details: BROMOscan platform, n = 2
T5 construct: purchased DiscoveRx (BROMOscan platform); host or cells: E. coli host derived from BL21 (T7 phage)
T5 sequence (O95696 562-666 limits assumed): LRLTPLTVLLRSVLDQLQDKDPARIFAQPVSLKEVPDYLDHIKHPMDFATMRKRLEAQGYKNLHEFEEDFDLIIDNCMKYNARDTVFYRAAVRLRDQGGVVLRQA
Protocol: as §1, §3, §4, §2, §5, §6

Kd (BRD7)	Kd (BRPF3)	Kd (BRPF1B)	Kd (BRD9)	Kd (BRD1)	Structure (SMILES)
82 nM	260 nM	7.9 nM	310 nM	48 nM	Cc1cc2cc(NS(=O)(=O)c3ccc(C#N)cc3)ccc2n(C)c1=O [Compound 19, 4-cyano-N-(1,3-dimethyl-2-oxo-1,2-dihydroquinolin-6-yl)benzenesulfonamide]
	190 nM	12 nM	170 nM	80 nM	COc1cc2c(cc1NS(=O)(=O)c1ccc(C#N)cc1OC)cc(C)c(=O)n2C [Compound 27, 4-cyano-2-methoxy-N-(7-methoxy-1,3-dimethyl-2-oxo-1,2-dihydroquinolin-6-yl)benzenesulfonamide]
21000 nM	9300 nM	60 nM	890 nM	1800 nM	COc1cc2c(cc1NS(=O)(=O)c1ccc(C#N)cc1)c(C)cc(=O)n2C [Compound 33, 4-cyano-N-(7-methoxy-1,4-dimethyl-2-oxo-1,2-dihydroquinolin-6-yl)benzenesulfonamide]

Reference: patent US20170291875A1, “QUINOLONES AS INHIBITORS OF CLASS IV BROMODOMAIN PROTEINS” (UCL BUSINESS PLC, priority 2014, published 2017)
